What was measured:
[1] = system: patients with type II diabetes; conditions: oral 600 mg once to 3 times a day; cited from earlier work
[2] = system: patients with type II diabetes; conditions: single parenteral dose of 1,000 mg; cited from earlier work
[3] = system: diabetic neuropathy; conditions: intravenous 600 mg a day for 3 weeks; cited from earlier work
[4] = system: high-fat diet fed insulin resistant mice; assay: hyperinsulinemic euglycemic clamp in high-fat diet fed insulin resistant mice; type: in vivo; conditions: 50 mg/kg/day by gavage for 7 days; steady state phase of hyperinsulinemic euglycemic clamp; n = 8
Method: The effects of administration of 50 mg/kg/day of the compound of Example 2, by gavages to high-fat diet fed insulin resistant mice [Cook et al. Diabetes, 53:2067-72, 2004] for 7 days, in terms of glucose infusion rate (mg/kg per min, during the steady state phase of hyperinsulinemic euglycemic clamp studies) were reported in the following table 1: […]

[5] = system: male Wistar rats; assay: oxidative stress-induced (BSO) hypertension in rats; type: in vivo; conditions: BSO 30 mmol/L/day in drinking water for seven days; compound 50 mg/kg/day for seven days
Text: It is widely known that metabolic syndrome is generally accompanied by oxidative stress. Also in the paper of Ogihara (Ogihara T. et al. “Oxidative stress induces insulin resistance by activating the nuclear factor-kB pathway and disrupting normal subcellular distribution of phosphatidylinositol 3-kinase” in Diabetologia 47, 794-805 (2004) such relationship was found. The effect of oxidative stress-induced hypertension in rats has been evaluated in male Wistar rats (10 animals/group). Hypertension was induced by oral administration of buthionine sulphoximine (BSO) (30 mmol/L/day) to the drinking water for seven days.
Compounds of examples 2, 3 and 5 suspended in the vehicle at the dose of 50 mg/kg/day were administered for seven days and some parameters measured in the experiments are reported in table 2.

Row | SMILES | insulin sensitivity [1] | glucose utilization [2] | symptomatic complaints [3] | glucose infusion rate [4] | % Increase systolic blood pressure [5] | % Plasma glutathione decrease [5] | Endothelium function (% contraction induced by acetylcholine) [5]
1 | O=C(O)CCCC[C@@H]1CCSS1 (racemic) [lipoic acid] | able to influence the insulin sensitivity | distinct improvement | decreased |  |  |  | 
2 | CC(=O)Oc1ccccc1C(=O)Oc1ccc(-c2cc(=S)ss2)cc1 [Cpd Ex 5, 2-acetoxy-benzoic acid 4-(thioxo-5H-[1,2]dithiol-3-yl)-phenyl ester] |  |  |  | 86.4 mg/kg per min | 10% | 5% | 88%
3 | CCOC(=O)c1ccccc1OC(=O)CCCCC1CCSS1 (stereo not shown) [Cpd Ex 6, 2-(5-[1,2]Dithiolan-3-yl-pentanoyloxy)-benzoic acid ethyl ester] |  |  |  |  | 50% | 20% | 60%
4 | O=C(Oc1ccc(-c2cc(=S)ss2)cc1)c1ccccc1O [Cpd Ex 8, 2-hydroxybenzoic acid 4-(thioxo-5H-[1,2]dithiol-3-yl)-phenyl ester] |  |  |  |  | 15% | 7% | 80%

Source: patent US20090036516A1, “COMPOUNDS FOR TREATING METABOLIC SYNDROME” (CTG PHARMA S.R.L., priority 2003, published 2009)
